We go through 3 compounds from ChEMBL document CHEMBL4043196, “Efficient synthesis of the GABAA receptor agonist trans-4-aminocrotonic acid (TACA)” (Bioorg Med Chem Lett, 2017).

The EC50 is the midpoint of the concentration-response curve. Low readings indicate an effect from little substance, high ones a need for much substance.

Test [1] in a line: Agonist activity at Heaemonchus contortus UNC-49B/C GABAA receptor expressed in Xenopus laevis oocytes by two-electrode voltage-clamp method. The format is cell-based. The conditions noted are these: Haemonchus contortus.
For the next test, the system named is Haemonchus contortus. As to the kind of experiment: Agonist activity at Heaemonchus contortus UNC-49B/C GABAA receptor expressed in Xenopus laevis oocytes at 500 uM by two-electrode voltage-clamp method. The format is cell-based.

Activity calls are given as the source filed them. The rule behind the calls is not given here.

`NC/C=C/C(=O)O` [t-4-AMINOCROTONIC ACID (TACA)] showed an EC50 in test [1] of 290 µM.
Turning to `NCC(Br)CC(=O)O` (stereo not drawn), the result with Haemonchus contortus was inactive.
Turning to `NCC(Cl)CC(=O)O` (stereo not drawn), the outcome in the test with Haemonchus contortus was inactive.
